Legend:
Type in all cases: biochemical
[1] = molecular target: T1, Jnk3 (Homo sapiens, UniProt P53779); assay: AlphaScreen kinase assay, Jnk3; details: read-out: IC50, activity toward kinase Jnk3
T1 construct: purchased Upstate Biotechnology

[2] = molecular target: T2, Kdr (Homo sapiens, UniProt P35968); assay: Z'-Lyte FRET kinase assay (Invitrogen), Kdr; details: read-out: IC50, activity toward kinase Kdr
T2 construct: purchased Invitrogen (assay run by Invitrogen)

[3] = molecular target: T3, Kit (Homo sapiens, UniProt P10721); assay: AlphaScreen kinase assay, Kit; details: read-out: IC50, activity toward kinase Kit
T3 construct: P1332.N6 BI PTP KIT M552-K948-X COD; His6 (N); made in house; host or cells: E. coli (PTP1B co-expressed)
T3 sequence (P10721 with tags, fused parts or gaps): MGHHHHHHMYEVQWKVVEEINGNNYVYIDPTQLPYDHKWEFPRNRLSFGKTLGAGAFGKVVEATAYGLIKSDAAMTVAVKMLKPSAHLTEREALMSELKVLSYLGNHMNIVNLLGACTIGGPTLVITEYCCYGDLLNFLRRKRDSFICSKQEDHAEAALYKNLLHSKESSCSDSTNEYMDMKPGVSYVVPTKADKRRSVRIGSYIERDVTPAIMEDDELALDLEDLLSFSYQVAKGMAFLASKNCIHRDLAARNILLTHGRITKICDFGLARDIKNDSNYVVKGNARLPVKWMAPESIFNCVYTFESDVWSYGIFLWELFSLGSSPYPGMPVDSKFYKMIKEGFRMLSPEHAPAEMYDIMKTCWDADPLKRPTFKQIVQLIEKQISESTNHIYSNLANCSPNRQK

[4] = molecular target: T4, Stk6 (Homo sapiens, UniProt O14965); assay: Z'-Lyte FRET kinase assay (Invitrogen), Stk6; details: read-out: IC50, activity toward kinase Stk6
T4 construct: purchased Invitrogen (Carlsbad, Calif.), screening service
T4 sequence (O14965 1-403): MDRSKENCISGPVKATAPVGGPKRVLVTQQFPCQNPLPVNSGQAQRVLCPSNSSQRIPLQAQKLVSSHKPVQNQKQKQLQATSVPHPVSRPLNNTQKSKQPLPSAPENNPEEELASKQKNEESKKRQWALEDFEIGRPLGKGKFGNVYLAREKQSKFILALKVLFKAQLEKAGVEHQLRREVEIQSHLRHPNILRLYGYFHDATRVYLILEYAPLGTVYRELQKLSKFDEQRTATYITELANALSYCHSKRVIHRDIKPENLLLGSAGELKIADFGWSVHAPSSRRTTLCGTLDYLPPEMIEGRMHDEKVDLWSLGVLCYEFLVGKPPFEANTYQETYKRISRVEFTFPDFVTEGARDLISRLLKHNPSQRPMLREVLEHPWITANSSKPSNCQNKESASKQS

[5] = molecular target: IGF1R (Homo sapiens, UniProt P08069); assay: AlphaScreen kinase assay, IGF1R; details: read-out: IC50, activity toward kinase IGF1R
[6] = molecular target: T5, Ret (Homo sapiens, UniProt P07949); assay: AlphaScreen kinase assay, Ret; details: read-out: IC50, activity toward kinase Ret
T5 construct: P1378.pET-SF BI-PTP RET H661-R1012 HIS; made in house
T5 sequence (P07949 with tags, fused parts or gaps): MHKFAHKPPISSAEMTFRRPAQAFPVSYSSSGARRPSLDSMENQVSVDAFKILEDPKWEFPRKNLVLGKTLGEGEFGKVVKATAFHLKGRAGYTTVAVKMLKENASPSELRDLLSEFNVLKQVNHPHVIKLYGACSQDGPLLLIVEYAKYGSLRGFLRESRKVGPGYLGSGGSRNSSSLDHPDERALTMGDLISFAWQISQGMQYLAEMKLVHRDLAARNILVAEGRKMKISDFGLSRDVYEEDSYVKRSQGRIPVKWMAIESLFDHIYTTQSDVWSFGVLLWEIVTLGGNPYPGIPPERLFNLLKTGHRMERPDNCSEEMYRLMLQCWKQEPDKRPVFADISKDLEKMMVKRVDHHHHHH

[7] = molecular target: Gsk3β (Homo sapiens, UniProt P49841); assay: AlphaScreen kinase assay, Gsk3β; details: read-out: IC50, activity toward kinase Gsk3β
Gsk3β, sequence (P49841 whole entry): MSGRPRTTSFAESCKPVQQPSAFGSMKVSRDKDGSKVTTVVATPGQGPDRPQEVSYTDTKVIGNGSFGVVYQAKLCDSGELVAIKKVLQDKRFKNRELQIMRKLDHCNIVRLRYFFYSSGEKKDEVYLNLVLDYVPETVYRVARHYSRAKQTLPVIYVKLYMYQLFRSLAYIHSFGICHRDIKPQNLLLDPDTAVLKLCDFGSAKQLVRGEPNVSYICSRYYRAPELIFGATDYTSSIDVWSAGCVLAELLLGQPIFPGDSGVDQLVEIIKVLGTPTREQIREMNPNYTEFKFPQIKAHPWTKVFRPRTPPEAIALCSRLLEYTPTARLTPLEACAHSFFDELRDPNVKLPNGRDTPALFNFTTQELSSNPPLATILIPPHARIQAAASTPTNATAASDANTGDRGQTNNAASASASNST
Method in brief: (§1)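 AlphaScreen read-out: acceptor-bead emission falls when kinase is inhibited. Biotin-peptide substrate captured on streptavidin donor beads, phospho-specific antibody on acceptor beads. 8 concentrations, 1:3 dilution series, from 20 mM DMSO stocks.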

[8] = molecular target: T6, Zap70 (Homo sapiens, UniProt P43403); assay: AlphaScreen kinase assay, Zap70; details: read-out: IC50, activity toward kinase Zap70
T6 construct: P1868.pFastBac1 ZAP70 D327-G606 HIS, WT; His7 (HHHHHHH) (C); made in house
T6 sequence (P43403 with tags, fused parts or gaps): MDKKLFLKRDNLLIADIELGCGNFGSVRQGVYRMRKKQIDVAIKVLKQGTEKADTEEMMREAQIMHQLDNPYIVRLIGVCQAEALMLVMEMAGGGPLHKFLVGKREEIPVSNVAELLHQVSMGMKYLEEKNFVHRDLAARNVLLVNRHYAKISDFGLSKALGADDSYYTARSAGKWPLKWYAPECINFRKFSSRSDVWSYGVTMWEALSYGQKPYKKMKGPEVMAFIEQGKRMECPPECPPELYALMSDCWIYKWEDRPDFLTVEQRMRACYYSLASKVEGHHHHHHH
Method in brief: as §1

[9] = molecular target: Plk1 (Homo sapiens, UniProt P53350); assay: AlphaScreen kinase assay, Plk1; details: read-out: IC50, activity toward kinase Plk1
Plk1, sequence (P53350 whole entry): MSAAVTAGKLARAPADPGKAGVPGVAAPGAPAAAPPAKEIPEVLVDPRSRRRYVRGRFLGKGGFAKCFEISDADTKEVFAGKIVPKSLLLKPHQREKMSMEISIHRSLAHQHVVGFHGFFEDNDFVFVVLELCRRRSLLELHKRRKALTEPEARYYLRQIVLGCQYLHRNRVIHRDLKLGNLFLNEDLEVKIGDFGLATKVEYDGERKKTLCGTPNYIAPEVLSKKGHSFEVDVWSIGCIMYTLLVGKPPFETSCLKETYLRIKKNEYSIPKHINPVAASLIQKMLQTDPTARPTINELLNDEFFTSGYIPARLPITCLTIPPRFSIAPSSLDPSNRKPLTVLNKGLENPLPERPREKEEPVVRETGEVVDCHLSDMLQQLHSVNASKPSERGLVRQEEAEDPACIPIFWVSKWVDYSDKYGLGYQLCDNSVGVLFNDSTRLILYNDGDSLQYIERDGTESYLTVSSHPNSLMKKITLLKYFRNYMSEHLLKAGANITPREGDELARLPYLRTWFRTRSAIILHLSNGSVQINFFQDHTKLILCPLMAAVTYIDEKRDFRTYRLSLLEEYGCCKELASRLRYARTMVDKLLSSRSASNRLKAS
Source text: (§2) AlphaScreen assay was used to screen additional kinases. The assay is similarly dependent on the phosphorylation of a peptide substrate. In this assay, an antibody that recognizes phosphorylated substrate is bound to an acceptor bead. The peptide substrate is attached to biotin, which binds to a donor head that contains streptavidin. Thus phosphorylated substrate is bound by antibody and streptavidin, bringing the donor and acceptor heads into close proximity when kinase is not inhibited. The donor produces singlet oxygen which results in emission from the acceptor when they are in close proximity. Conversely, when kinase is inhibited, the donor and acceptor beads are not associated and the emission from the acceptor is reduced.
(§3) AlphaScreen assays were done using compounds dissolved in DMSO to a concentration of 20 mM. The compounds were diluted accordingly to the desired final concentrations in each sample well, using 1:3 serial dilution for a total of 8 concentration points.

[10] = molecular target: T7, Btk (Homo sapiens, UniProt Q06187); assay: Z'-Lyte FRET kinase assay (Invitrogen), Btk; details: read-out: IC50, activity toward kinase Btk
T7 construct: purchased Invitrogen (assay run by Invitrogen)

[11] = molecular target: T8, IKK beta (Homo sapiens, UniProt O14920); assay: AlphaScreen kinase assay, IKK beta; details: read-out: IC50, activity toward kinase IKK beta
T8 sequence (O14920 1-756): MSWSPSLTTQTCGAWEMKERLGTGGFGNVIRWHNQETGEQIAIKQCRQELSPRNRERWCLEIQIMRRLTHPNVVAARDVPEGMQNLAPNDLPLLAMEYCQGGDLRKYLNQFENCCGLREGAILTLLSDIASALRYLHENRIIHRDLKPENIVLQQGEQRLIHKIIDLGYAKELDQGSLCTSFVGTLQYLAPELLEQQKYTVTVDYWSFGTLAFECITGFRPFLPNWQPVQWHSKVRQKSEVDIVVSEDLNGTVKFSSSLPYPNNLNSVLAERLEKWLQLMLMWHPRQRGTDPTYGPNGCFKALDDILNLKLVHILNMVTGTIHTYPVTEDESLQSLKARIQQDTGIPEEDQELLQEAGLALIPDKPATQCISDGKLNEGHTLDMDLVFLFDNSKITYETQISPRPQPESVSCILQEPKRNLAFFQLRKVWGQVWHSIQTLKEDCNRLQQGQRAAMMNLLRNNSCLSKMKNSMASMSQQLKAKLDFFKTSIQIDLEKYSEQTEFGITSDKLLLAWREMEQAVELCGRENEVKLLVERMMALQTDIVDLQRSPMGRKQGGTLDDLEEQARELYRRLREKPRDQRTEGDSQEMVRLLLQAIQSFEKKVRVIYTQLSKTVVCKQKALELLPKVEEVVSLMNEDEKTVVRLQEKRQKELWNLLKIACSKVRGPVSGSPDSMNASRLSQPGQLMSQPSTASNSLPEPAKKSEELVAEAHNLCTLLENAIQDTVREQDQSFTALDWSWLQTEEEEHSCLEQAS

[12] = molecular target: T9, B-Raf V600E (Homo sapiens, UniProt P15056, V600E); assay: AlphaScreen kinase assay, B-Raf V600E; details: read-out: IC50, activity toward kinase B-Raf V600E
T9 construct: P4254. pFastBacBD-CDC37 BRAF D437-K722-X, V600E; His6 with pFastBac HT leader (TEV site) (N); made in house; host or cells: Sf9 (baculovirus; chaperone CDC37 co-expressed)
T9 sequence (P15056 with tags, fused parts or gaps V600E): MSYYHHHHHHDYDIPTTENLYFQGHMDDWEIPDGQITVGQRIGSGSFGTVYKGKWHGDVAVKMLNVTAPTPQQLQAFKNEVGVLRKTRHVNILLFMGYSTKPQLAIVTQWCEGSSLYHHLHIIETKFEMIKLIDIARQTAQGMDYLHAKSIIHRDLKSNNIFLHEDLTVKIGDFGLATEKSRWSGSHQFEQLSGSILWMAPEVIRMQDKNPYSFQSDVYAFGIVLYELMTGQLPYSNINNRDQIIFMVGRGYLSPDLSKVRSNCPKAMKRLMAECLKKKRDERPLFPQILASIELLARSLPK

[13] = molecular target: T10, Jak3 (Homo sapiens, UniProt P52333); assay: AlphaScreen kinase assay, Jak3; details: read-out: IC50, activity toward kinase Jak3
T10 sequence (P52333 1-1124): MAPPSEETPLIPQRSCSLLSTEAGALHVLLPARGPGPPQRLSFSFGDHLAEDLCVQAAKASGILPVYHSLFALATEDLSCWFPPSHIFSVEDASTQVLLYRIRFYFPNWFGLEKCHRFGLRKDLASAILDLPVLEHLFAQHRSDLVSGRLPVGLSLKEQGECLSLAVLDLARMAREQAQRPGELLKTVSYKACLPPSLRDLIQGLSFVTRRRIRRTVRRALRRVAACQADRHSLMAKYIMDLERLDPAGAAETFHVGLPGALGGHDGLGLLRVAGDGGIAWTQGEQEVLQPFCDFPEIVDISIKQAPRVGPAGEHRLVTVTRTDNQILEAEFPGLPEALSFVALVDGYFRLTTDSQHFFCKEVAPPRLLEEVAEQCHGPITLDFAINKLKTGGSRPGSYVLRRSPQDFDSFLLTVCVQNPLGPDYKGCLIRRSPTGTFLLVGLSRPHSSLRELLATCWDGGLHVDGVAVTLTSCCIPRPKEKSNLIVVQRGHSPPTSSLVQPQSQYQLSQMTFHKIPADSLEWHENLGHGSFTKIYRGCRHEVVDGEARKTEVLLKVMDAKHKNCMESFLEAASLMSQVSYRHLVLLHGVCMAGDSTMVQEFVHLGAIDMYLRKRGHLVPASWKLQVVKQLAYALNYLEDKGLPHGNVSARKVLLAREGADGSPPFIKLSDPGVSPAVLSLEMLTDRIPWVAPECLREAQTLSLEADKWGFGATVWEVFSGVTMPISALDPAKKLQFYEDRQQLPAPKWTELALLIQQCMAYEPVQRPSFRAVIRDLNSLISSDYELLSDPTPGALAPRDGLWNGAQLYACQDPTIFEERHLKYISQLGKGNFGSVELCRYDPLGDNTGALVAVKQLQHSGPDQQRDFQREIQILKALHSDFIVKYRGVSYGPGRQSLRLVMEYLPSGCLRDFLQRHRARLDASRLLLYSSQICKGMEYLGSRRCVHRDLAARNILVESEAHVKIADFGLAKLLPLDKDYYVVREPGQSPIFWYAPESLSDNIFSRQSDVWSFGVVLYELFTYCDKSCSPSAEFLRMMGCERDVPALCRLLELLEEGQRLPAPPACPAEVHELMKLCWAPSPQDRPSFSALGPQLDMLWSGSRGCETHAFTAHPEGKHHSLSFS
Source text: as §2, §3

[14] = molecular target: T11, Met (Homo sapiens, UniProt P08581); assay: AlphaScreen kinase assay, Met; details: read-out: IC50, activity toward kinase Met
T11 construct: P1818.pETN6 BI-PTP MET G1056-G1364-X WT; His6 (N); made in house; host or cells: E. coli (PTP1B co-expressed)
T11 sequence (P08581 with tags, fused parts or gaps): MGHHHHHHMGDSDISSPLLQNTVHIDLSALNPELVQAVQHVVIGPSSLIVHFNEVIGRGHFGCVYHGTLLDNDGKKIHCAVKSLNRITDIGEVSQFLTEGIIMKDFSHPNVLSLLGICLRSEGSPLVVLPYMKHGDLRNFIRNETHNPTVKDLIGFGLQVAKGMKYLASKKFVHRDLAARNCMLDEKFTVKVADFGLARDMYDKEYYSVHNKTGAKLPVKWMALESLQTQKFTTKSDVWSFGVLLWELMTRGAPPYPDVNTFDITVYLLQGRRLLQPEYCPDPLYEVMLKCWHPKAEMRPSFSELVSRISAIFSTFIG
Method in brief: as §1

[15] = molecular target: T12, B-Raf (Homo sapiens, UniProt P15056); assay: AlphaScreen kinase assay, B-Raf; details: read-out: IC50, activity toward kinase B-Raf
T12 construct: purchased Upstate Biotechnology
T12 sequence (P15056 whole entry): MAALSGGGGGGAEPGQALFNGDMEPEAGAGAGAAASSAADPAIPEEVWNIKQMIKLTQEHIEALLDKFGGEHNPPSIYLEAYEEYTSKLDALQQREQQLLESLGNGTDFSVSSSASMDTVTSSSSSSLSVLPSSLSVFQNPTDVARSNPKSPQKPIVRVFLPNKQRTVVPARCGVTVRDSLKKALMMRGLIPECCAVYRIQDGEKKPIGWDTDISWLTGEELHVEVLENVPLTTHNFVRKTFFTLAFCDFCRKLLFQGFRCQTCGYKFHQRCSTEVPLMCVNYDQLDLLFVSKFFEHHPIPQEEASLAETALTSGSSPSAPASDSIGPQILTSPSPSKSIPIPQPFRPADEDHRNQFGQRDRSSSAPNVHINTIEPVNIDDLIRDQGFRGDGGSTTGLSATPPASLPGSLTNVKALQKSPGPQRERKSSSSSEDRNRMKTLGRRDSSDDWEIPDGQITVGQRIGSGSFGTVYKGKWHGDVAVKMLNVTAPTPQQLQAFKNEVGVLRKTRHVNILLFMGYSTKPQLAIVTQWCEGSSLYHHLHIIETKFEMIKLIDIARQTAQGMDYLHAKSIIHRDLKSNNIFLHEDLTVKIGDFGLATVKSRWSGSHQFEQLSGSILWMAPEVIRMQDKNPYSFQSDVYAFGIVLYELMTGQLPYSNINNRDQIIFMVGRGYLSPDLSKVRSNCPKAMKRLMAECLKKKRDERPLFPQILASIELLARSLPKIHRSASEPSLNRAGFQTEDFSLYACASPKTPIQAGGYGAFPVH

[16] = molecular target: T13, c-Raf-1 (Homo sapiens, UniProt P04049); assay: AlphaScreen kinase assay, c-Raf-1; details: read-out: IC50, activity toward kinase c-Raf-1
T13 construct: purchased Upstate Biotechnology
T13 sequence (P04049 whole entry): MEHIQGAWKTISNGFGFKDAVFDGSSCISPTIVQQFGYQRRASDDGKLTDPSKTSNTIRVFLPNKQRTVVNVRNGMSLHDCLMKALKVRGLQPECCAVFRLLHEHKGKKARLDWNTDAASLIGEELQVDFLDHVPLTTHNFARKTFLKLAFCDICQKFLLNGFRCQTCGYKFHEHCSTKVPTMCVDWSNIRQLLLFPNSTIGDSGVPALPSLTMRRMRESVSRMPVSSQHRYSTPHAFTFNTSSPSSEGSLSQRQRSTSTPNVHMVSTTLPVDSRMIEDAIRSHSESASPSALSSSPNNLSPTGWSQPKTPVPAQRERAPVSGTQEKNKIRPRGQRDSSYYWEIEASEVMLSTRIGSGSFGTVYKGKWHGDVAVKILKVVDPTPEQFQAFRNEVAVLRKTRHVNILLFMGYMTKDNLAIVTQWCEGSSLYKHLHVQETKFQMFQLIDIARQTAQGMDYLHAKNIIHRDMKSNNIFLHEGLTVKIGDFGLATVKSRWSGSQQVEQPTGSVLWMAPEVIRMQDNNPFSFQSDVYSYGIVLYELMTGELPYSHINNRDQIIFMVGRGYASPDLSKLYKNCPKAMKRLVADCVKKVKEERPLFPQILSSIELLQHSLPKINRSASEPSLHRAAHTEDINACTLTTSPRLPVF

T2 sequence (P35968 20-1356): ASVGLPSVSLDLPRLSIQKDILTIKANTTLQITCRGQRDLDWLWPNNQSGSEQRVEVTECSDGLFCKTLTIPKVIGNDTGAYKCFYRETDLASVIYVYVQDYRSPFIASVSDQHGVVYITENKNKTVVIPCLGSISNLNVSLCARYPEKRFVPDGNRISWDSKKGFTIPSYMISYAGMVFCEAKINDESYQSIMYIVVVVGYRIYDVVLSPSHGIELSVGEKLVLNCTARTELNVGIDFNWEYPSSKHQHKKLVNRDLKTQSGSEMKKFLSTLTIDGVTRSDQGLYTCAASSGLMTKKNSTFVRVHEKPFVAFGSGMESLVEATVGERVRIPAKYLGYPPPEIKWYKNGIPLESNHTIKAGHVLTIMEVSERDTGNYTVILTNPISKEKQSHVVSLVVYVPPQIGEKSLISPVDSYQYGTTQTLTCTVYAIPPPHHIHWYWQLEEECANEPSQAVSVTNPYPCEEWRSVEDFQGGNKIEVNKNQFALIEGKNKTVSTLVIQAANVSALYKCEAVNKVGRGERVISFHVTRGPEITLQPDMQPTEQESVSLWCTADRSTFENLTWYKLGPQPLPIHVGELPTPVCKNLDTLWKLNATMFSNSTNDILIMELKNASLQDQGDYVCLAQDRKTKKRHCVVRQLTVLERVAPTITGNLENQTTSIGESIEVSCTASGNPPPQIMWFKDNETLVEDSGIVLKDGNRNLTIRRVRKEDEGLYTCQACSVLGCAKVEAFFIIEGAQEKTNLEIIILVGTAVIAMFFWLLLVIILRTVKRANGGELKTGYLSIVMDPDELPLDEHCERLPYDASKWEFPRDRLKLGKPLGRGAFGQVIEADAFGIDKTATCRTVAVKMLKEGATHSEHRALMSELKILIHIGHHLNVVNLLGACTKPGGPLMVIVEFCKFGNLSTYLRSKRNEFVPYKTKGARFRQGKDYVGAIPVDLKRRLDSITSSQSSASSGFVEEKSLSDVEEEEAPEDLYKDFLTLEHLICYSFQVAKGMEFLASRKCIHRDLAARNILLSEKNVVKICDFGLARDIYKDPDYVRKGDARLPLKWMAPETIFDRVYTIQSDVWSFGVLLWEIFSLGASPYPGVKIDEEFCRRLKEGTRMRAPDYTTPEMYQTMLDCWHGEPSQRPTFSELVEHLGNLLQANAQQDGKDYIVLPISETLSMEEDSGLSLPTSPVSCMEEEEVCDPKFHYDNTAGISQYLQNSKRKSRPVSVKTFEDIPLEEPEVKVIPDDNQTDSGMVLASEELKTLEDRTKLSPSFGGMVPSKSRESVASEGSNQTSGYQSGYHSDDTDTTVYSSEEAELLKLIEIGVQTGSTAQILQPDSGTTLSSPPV

Row | Compound | IC50 [1] [µM] | IC50 [2] [µM] | IC50 [3] [µM] | IC50 [4] [µM] | IC50 [5] [µM] | IC50 [6] [µM] | IC50 [7] [µM] | IC50 [8] [µM] | IC50 [9] [µM] | IC50 [10] [µM] | IC50 [11] [µM] | IC50 [12] [µM] | IC50 [13] [µM] | IC50 [14] [µM] | IC50 [15] [µM] | IC50 [16] [µM]
1 | COc1cccc(-c2cnc3[nH]ccc3c2)c1 [Compound P-0213] | ≤ 10 | ≤ 10 | ≤ 10 | ≤ 10 | ≤ 10 |  |  |  |  |  |  |  |  |  |  | 
2 | Clc1ccc(Cc2c[nH]c3nccc(-c4ccsc4)c23)cn1 [Compound P-0123] |  |  | ≤ 10 | ≤ 10 |  | ≤ 10 | ≤ 10 | ≤ 10 | ≤ 10 |  |  |  |  |  |  | 

Further lines, results first:

Row | IC50 [1] [µM] | IC50 [2] [µM] | IC50 [3] [µM] | IC50 [4] [µM] | IC50 [5] [µM] | IC50 [6] [µM] | IC50 [7] [µM] | IC50 [8] [µM] | IC50 [9] [µM] | IC50 [10] [µM] | IC50 [11] [µM] | IC50 [12] [µM] | IC50 [13] [µM] | IC50 [14] [µM] | IC50 [15] [µM] | IC50 [16] [µM] | Compound
3 |  | ≤ 10 |  |  |  | ≤ 10 | ≤ 10 |  | ≤ 10 | ≤ 10 | ≤ 10 | ≤ 10 |  |  |  |  | NC(=O)c1cccc(-c2ccnc3[nH]cc(C(=O)c4ccc(Cl)cc4)c23)c1 [Compound P-0135]
4 |  |  |  | ≤ 10 |  |  |  |  | ≤ 10 |  |  | ≤ 10 | ≤ 10 | ≤ 10 |  |  | OCc1cccc(-c2ccnc3[nH]cc(Sc4ccccc4)c23)c1 [Compound P-0146]
5 |  |  |  |  |  | ≤ 10 |  |  | ≤ 10 |  |  | ≤ 10 | ≤ 10 |  | ≤ 10 | ≤ 10 | O=C(c1cc(O)ccc1F)c1c[nH]c2nccc(-c3ccccc3)c12 [Compound P-0863]
